Reference: ChEMBL document CHEMBL1132420, “Vasopeptidase inhibitors: incorporation of geminal and spirocyclic substituted azepinones in mercaptoacyl dipeptides” (J Med Chem, 1999)

Legend:
Neprilysin = biological target: T1, Neprilysin (Rattus norvegicus, UniProt P07861); experiment: In vitro inhibitory activity against purified rat kidney neutral endopeptidase (NEP) using a fluorometric assay with dansyl-Gly-Phe-Arg as the substrate
T1 sequence (P07861 whole entry): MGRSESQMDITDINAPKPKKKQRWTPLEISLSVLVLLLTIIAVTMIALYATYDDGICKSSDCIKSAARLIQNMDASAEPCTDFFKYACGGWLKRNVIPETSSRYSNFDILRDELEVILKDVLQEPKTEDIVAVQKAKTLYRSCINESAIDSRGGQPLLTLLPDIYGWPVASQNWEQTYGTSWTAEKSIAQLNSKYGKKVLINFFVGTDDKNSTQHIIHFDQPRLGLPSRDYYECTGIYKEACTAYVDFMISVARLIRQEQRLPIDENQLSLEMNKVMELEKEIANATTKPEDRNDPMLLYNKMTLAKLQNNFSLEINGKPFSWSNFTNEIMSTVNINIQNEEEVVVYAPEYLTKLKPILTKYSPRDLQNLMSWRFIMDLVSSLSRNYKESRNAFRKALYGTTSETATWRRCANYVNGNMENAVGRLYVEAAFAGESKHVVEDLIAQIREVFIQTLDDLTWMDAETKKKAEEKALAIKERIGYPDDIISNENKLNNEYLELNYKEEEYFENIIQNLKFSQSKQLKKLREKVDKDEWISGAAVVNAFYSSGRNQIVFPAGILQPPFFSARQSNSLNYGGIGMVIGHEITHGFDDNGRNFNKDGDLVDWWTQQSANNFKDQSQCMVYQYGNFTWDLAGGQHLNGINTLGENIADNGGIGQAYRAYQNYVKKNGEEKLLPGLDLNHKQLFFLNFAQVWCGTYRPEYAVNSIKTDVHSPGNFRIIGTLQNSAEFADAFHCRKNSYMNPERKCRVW

Rattus norvegicus = organism: Rattus norvegicus; experiment: Compound is evaluated for the dose required for 50% inhibition of AI pressor response in normotensive rats; format: functional
[1] = biological target: T2, Angiotensin-converting enzyme (Oryctolagus cuniculus, UniProt P12822); experiment: In vitro inhibitory activity against Angiotensin I converting enzyme (ACE) isolated from rabbit lung extract using hippuryl-L-histidyl-L-leucine (HHL) as the substrate
T2 sequence (P12822 whole entry): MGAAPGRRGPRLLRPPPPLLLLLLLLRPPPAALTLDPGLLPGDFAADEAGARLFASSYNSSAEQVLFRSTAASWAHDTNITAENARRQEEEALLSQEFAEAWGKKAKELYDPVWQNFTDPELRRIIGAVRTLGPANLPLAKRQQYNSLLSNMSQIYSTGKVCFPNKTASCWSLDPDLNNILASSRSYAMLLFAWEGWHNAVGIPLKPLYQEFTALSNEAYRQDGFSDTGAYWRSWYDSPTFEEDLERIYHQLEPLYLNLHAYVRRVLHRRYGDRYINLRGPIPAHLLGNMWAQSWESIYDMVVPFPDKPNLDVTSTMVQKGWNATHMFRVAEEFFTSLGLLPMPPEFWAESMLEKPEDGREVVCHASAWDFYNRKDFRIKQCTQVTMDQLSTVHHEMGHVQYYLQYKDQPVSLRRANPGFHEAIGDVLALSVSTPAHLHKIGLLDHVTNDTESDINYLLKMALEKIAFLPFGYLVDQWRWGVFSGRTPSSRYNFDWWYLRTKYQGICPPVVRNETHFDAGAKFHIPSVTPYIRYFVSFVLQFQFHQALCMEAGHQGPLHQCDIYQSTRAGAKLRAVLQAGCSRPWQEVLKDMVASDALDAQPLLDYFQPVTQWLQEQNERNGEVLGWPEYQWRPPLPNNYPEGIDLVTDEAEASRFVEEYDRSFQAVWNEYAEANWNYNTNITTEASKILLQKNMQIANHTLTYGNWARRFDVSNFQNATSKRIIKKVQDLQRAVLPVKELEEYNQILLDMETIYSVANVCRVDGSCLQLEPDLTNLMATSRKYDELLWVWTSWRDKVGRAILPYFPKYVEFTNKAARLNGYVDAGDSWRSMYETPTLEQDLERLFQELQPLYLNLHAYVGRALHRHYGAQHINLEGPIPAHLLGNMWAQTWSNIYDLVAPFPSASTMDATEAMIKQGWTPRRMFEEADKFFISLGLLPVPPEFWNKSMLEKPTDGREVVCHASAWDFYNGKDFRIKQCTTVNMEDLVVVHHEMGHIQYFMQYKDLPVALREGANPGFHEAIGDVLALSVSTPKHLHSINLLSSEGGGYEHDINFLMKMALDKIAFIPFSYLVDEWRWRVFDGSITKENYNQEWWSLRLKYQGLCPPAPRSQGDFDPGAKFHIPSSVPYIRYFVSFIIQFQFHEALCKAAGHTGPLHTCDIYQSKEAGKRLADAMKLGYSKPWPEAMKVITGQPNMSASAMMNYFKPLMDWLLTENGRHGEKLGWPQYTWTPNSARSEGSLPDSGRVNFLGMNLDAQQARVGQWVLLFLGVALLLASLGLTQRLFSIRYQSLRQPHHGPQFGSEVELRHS

| Structure (SMILES) | IC50 (Neprilysin) | ED50 (Rattus norvegicus) | IC50 [1] |
| --- | --- | --- | --- |
| CC1(C)CCC[C@H](NC(=O)[C@@H](S)Cc2ccccc2)C(=O)N1CC(=O)O [GEMOPATRILAT] | 63 nM | 0.1 µmol/kg | 12 nM |
| C[C@H]1CCC[C@H](NC(=O)[C@@H](S)Cc2ccccc2)C(=O)N1CC(=O)O |  |  | 8.2 nM |
| O=C(O)CN1C(=O)[C@@H](NC(=O)[C@@H](S)Cc2ccccc2)CCCC12CC2 | 377 nM |  | 9.6 nM |
| O=C(O)CN1C(=O)[C@@H](NC(=O)[C@@H](S)Cc2ccccc2)CCCC12CCCC2 | 426 nM |  | 6 nM |
| O=C(O)CN1C(=O)[C@@H](NC(=O)[C@@H](S)Cc2ccccc2)CCCC12CCC2 | 641 nM |  | 29 nM |
